{
  "source": "PubChem BioAssay AID696",
  "about": "(Sanford-Burnham Center for Chemical Genomics, 2007)",
  "data": [
    {"target": "Alkaline phosphatase, placental type (Homo sapiens) (UniProt P05187)", "sequence (P05187 whole entry, looked up)": "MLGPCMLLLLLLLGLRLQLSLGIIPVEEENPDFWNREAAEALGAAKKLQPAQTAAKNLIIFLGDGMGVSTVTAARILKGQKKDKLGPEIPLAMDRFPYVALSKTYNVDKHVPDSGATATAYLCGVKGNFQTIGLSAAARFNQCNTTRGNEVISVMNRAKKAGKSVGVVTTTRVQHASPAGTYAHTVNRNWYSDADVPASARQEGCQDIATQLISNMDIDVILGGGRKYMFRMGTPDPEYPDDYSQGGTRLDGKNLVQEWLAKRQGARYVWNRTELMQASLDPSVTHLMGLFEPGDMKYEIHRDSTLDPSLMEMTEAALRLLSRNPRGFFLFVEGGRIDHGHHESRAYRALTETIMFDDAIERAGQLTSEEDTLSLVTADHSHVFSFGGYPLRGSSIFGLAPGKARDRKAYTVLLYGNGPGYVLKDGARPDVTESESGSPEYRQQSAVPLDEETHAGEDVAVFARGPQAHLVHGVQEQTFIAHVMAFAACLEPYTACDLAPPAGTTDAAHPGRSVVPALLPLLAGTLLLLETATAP", "test": "activation of human placental alkaline phosphatase – biochemical, luminescence, HTS (AID 696)", "conditions": "purified PLAP enzyme, luminescent substrate read-out", "units": {"EC50": "µM"}, "values": [
      {"smiles": "c1ccc(CSCCc2ccncc2)cc1", "EC50": 66.9},
      {"smiles": "Cc1ccc(C2CC(c3ccc(Cl)cc3)=NNC2=O)cc1", "note": "(centres undefined)", "EC50": 0.203},
      {"smiles": "CCC(=O)Nc1ccccc1C(=O)OCC(=O)c1ccccc1", "EC50": 39.2},
      {"smiles": "O=C(Cn1c(=O)oc2cc(S(=O)(=O)N3CCCC3)ccc21)NCc1ccc(F)cc1", "EC50": 0.457},
      {"smiles": "c1ccc(Nc2cccc(Nc3ccccc3)n2)cc1", "EC50": 37},
      {"smiles": "CCOC(=O)c1c(C)[nH]c(C(=O)CSc2nnc(CC(C)c3ccccc3)o2)c1C", "note": "(centres undefined)", "EC50": 78.5},
      {"smiles": "N#CC(c1ccc(F)cc1)c1ccc(C(=O)c2ccccc2)cc1", "note": "(centres undefined)", "EC50": 7.89},
      {"smiles": "CC(C)N=c1scc(-c2ccco2)n1/N=C/c1ccc(O)c(O)c1", "EC50": 48.2},
      {"smiles": "CCCn1c(C(O)c2ccc3c(c2)OCO3)nc2ccccc21", "note": "(centres undefined)", "EC50": 17.7},
      {"smiles": "O=C(C[n+]1cc2ccccc2c2ccccc21)c1ccccc1", "EC50": 94.1},
      {"smiles": "CCOc1ccc(CNC(=S)N/N=C\\c2ccc([N+](=O)[O-])cc2)cc1", "EC50": 10.9},
      {"smiles": "COc1cccc(NC(=O)c2nnn(CCc3ccccc3)c2N)c1", "EC50": 82.8},
      {"smiles": "Cc1ccc(/C=N/NC(=O)c2c[nH]c3ccccc23)o1", "EC50": 59.2},
      {"smiles": "COc1cccc(NCc2cc3c(C(C)(C)C)nn(-c4ccccc4)c3[nH]c2=O)c1", "EC50": 78},
      {"smiles": "COC(=O)c1cn[nH]c1NC(=S)Nc1ccccc1C", "EC50": 21.1},
      {"smiles": "COc1ccc(-c2cc(NCc3ccccn3)n3ncnc3n2)cc1", "EC50": 65.9},
      {"smiles": "Cc1cccc(N2C(=O)NC(=O)/C(=C\\c3cnn(-c4ccccc4)c3)C2=O)c1", "EC50": 1.09},
      {"smiles": "Cc1nn(C)cc1/C=N\\NC(=O)c1ccc2c(c1)c(C)c(C)n2Cc1ccccc1", "EC50": 72.1},
      {"smiles": "Clc1ccc(-c2cc(CSc3cccc(Cl)c3)on2)cc1", "EC50": 69.4},
      {"smiles": "CC1Cc2ccccc2N1C(=O)CSc1nnc(Cc2ccccc2)n1CCc1ccccc1", "note": "(centres undefined)", "EC50": 86.8},
      {"smiles": "CCn1c(SCC(=O)c2ccc(O)c(O)c2)nnc1-c1ccccc1", "EC50": 79.4},
      {"smiles": "Cc1ccc(C)c(NC(=S)NC(NC(=O)Cc2cccc3ccccc23)C(Cl)(Cl)Cl)c1", "note": "(centres undefined)", "EC50": 63.1},
      {"smiles": "O=P(/C(=N/O)N1CCCCC1)(N1CCOCC1)N1CCOCC1", "EC50": 54.5},
      {"smiles": "O=P(CCCCCCCCCP(=O)(c1ccccc1)c1ccccc1)(c1ccccc1)c1ccccc1", "EC50": 99.6},
      {"smiles": "CC1CC(C)CN(CC(C)(C)NS(=O)(=O)c2ccc(Cl)cc2)C1", "note": "(centres undefined)", "EC50": 24.8},
      {"smiles": "O=C(NC1(C(F)(F)F)Oc2ccc(Cl)cc2O1)N1CCC2(CC1)OCCO2", "note": "(centres undefined)", "EC50": 61.9},
      {"smiles": "N#CC(c1ccc(F)cc1)c1ccc(C(=O)c2ccc(F)cc2)cc1", "note": "(centres undefined)", "EC50": 23.1},
      {"smiles": "Cc1cc(Nc2ccc(Cl)cc2)n(-c2cccc(Cl)c2)n1", "EC50": 51},
      {"smiles": "COc1ccc(-c2nnc(-c3ccc(Br)o3)o2)cc1OC", "EC50": 25.9},
      {"smiles": "O=C(Nc1ccccc1)NC1(C(=O)N2CCN(C(=O)c3ccco3)CC2)CCCCC1", "EC50": 35.6},
      {"smiles": "CCCCOC(=O)C(C)Nc1n[nH]c(=S)[nH]c1=O", "note": "(centres undefined)", "EC50": 21.4},
      {"smiles": "CC(C)n1c(-c2ccc(N(C)C)cc2)nc2ccccc21", "EC50": 8.52},
      {"smiles": "Cc1ccc(-n2c([O-])nc(-[n+]3ccccc3)c2C=O)cc1", "EC50": 9.08},
      {"smiles": "O=C1Nc2ccc(Br)cc2/C1=N/N=C/C1=C(N2CCOCC2)C(=C\\c2ccccc2)/CC1", "EC50": 38.4},
      {"smiles": "O=C(Cn1c(=O)n(-c2ccccc2)c(=O)c2sccc21)N1CCCC1", "EC50": 2.65},
      {"smiles": "CCCCN1CCc2c1nc1ccc(Br)cc1c2N", "EC50": 77.2},
      {"smiles": "O=[N+]([O-])c1ccc(Sc2nnnn2-c2ccccc2)c(Cl)c1", "EC50": 26.3},
      {"smiles": "O=C(Oc1ccc2c(=O)c(Oc3ccc4ccccc4c3)coc2c1)c1cncc(Br)c1", "EC50": 74},
      {"smiles": "CCCn1c(CNc2ccc(Br)cc2)nc2ccccc21", "EC50": 48.5}
    ]}
  ]
}
